# Values quoted from earlier work, collected in US20220160665A1, “COMPOSITION IN MICRO-ENCAPSULATED FORM, BASED ON N-BUTYRICACID OR DERIVATIVES THEREOF, FOR TREATING CROHNS DISEASE OR ULCERATIVE RECTAL COLITIS” (SILA S.R.L., priority 2019, published 2022).
# Settings: solid granular form, white-coloured powder, commercially available
smiles,measurement,value
CCCC(=O)[O-].[Na+] [sodium salt of the n-butyric acid],temperature up to which stable,up to 250 °C
